Type in all cases: functional
Assay [1] in a line: Cytotoxicity against human KBV Cells assessed as cell survival rate at 10 uM incubated for 72 hrs by MTT assay. The following applies: read-out: Survival.
A short description of assay [2]: Reversal of multidrug resistance in human KBV Cells assessed as increase in PTX-induced cytotoxicity by measuring cell survival rate at 10 uM incubated for 72 hrs in presence of paclitaxel by MTT assay relative to control. The conditions noted are these: read-out: Survival.
The nature of assay [3]: Reversal of multidrug resistance in human KBV Cells assessed as increase in PTX-induced cytotoxicity by measuring cell survival rate at 5 uM incubated for 72 hrs in presence of paclitaxel by MTT assay relative to control. The conditions noted are these: read-out: Survival.
The nature of assay [4]: Reversal of multidrug resistance in human KBV Cells assessed as reversal fold of paclitaxel IC50 at 5 uM incubated for 72 hrs in presence of paclitaxel by MTT assay.
A short description of assay [5]: Reversal of multidrug resistance in human KBV Cells assessed as reversal fold of paclitaxel IC50 at 10 uM incubated for 72 hrs in presence of paclitaxel by MTT assay.

As for `CC(C)(C)OC(=O)NCCCC[C@H](NC(=O)OC(C)(C)C)C(=O)N[C@H]1CC[C@]2(C)[C@H]3C[C@@H](O)[C@@H]4[C@@H]([C@]5(C)CC[C@H](C(C)(C)O)O5)CC[C@@]4(C)[C@]3(C)CC[C@H]2C1(C)C`, the figures for the viability at 10 µM in assay [1] and in assay [2] were 119% and 33%, respectively. The viability at 5 µM in assay [3] came out at 47%.

In the case of `CC(C)(O)[C@@H]1CC[C@@](C)([C@H]2CC[C@]3(C)[C@@H]2[C@H](O)C[C@@H]2[C@@]4(C)CC[C@H](NC(=O)[C@@H](N)Cc5ccc(O)cc5)C(C)(C)[C@@H]4CC[C@]23C)O1`, the viability at 10 µM in assay [1] is 91%; in assay [2], 71%. Further, the viability at 5 µM in assay [3] was 88%.

As for `CC(C)[C@H](NC(=O)OC(C)(C)C)C(=O)N[C@H]1CC[C@]2(C)[C@H]3C[C@@H](O)[C@@H]4[C@@H]([C@]5(C)CC[C@@H](C(C)(C)O)O5)CC[C@@]4(C)[C@]3(C)CC[C@H]2C1(C)C`, the viability at 10 µM stood at 89% in assay [1] and 31% in assay [2]. The viability at 5 µM in assay [3] is 48%.

As for `CC(C)(C)OC(=O)N[C@@H](Cc1ccccc1)C(=O)N[C@H]1CC[C@]2(C)[C@H]3C[C@@H](O)[C@@H]4[C@@H]([C@]5(C)CC[C@H](C(C)(C)O)O5)CC[C@@]4(C)[C@]3(C)CC[C@H]2C1(C)C`, the figures for the viability at 10 µM in assay [1] and in assay [2] were 104% and 24%, respectively. In addition, the viability at 5 µM in assay [3] was 30%. Further, the figures for the “fold change (FC)” value in assay [4] and in assay [5] were 22 and 82, respectively.

In the case of `CC(C)(O)[C@H]1CC[C@@](C)([C@H]2CC[C@]3(C)[C@@H]2[C@H](O)C[C@@H]2[C@@]4(C)CC[C@H](NC(=O)[C@@H](N)Cc5ccccc5)C(C)(C)[C@@H]4CC[C@]23C)O1`, the viability at 10 µM amounted to 85% in assay [1] and 29% in assay [2]. In assay [3], the viability at 5 µM amounted to 33%. The “fold change (FC)” value in assay [4] amounted to 56; in assay [5], 321.

Regarding `CC(C)(O)[C@H]1CC[C@@](C)([C@H]2CC[C@]3(C)[C@@H]2[C@H](O)C[C@@H]2[C@@]4(C)CC[C@H](N)C(C)(C)[C@@H]4CC[C@]23C)O1`, the viability at 10 µM came to 98% in assay [1] and 40% in assay [2]. The viability at 5 µM in assay [3] is 44%.

With `CC(C)[C@H](NC(=O)OC(C)(C)C)C(=O)N[C@H]1CC[C@]2(C)[C@H]3C[C@@H](O)[C@@H]4[C@@H]([C@]5(C)CC[C@H](C(C)(C)O)O5)CC[C@@]4(C)[C@]3(C)CC[C@H]2C1(C)C`, the viability at 10 µM came out at 114% in assay [1] and 21% in assay [2]. In addition, in assay [3], the viability at 5 µM came to 36%.

`CC(C)(C)OC(=O)N1CCC[C@H]1C(=O)O[C@H]1CC[C@]2(C)[C@H]3C[C@@H](O)[C@@H]4[C@@H]([C@]5(C)CC[C@H](C(C)(C)O)O5)CC[C@@]4(C)[C@]3(C)CC[C@H]2C1(C)C`: the viability at 10 µM in assay [1] was found to be 102%; in assay [2] it was 70%. Also, the viability at 5 µM in assay [3] is 111%.

On to `COc1cc2c(cc1OC)CN(CCc1ccc(NC(=O)c3cc(OC)c(OC)cc3NC(=O)c3cnc4ccccc4c3)cc1)CC2`, for which the “fold change (FC)” value is reported as 113 in assay [4] and 150 in assay [5].

For the compound `CC(C)(O)[C@H]1CC[C@@](C)([C@H]2CC[C@]3(C)[C@@H]2[C@H](O)C[C@@H]2[C@@]4(C)CC[C@H](OC(=O)[C@@H]5CCCN5)C(C)(C)[C@@H]4CC[C@]23C)O1`, the figures for the viability at 10 µM in assay [1] and in assay [2] were 108% and 61%, respectively. The viability at 5 µM in assay [3] worked out at 76%.

As for `CC(C)(C)OC(=O)N1CCC[C@H]1C(=O)N[C@H]1CC[C@]2(C)[C@H]3C[C@@H](O)[C@@H]4[C@@H]([C@]5(C)CC[C@@H](C(C)(C)O)O5)CC[C@@]4(C)[C@]3(C)CC[C@H]2C1(C)C`, the viability at 10 µM in assay [1] was found to be 111%; in assay [2], 30%. The viability at 5 µM in assay [3] stood at 44%.

In the case of `CC(C)[C@H](N)C(=O)N[C@H]1CC[C@]2(C)[C@H]3C[C@@H](O)[C@@H]4[C@@H]([C@]5(C)CC[C@@H](C(C)(C)O)O5)CC[C@@]4(C)[C@]3(C)CC[C@H]2C1(C)C`, the viability at 10 µM worked out at 79% in assay [1] and 52% in assay [2]. Also, the viability at 5 µM in assay [3] amounted to 81%.

Consider `CC(C)(O)[C@H]1CC[C@@](C)([C@H]2CC[C@]3(C)[C@@H]2[C@H](O)C[C@@H]2[C@@]4(C)CC[C@H](NC(=O)[C@@H](N)CCCCN)C(C)(C)[C@@H]4CC[C@]23C)O1`, for which the viability at 10 µM in assay [1] amounted to 116%; in assay [2] it was 112%. Further, the viability at 5 µM in assay [3] stood at 110%.

On to `CC(C)(O)[C@@H]1CC[C@@](C)([C@H]2CC[C@]3(C)[C@@H]2[C@H](O)C[C@@H]2[C@@]4(C)CC[C@H](N)C(C)(C)[C@@H]4CC[C@]23C)O1`, for which the results for the viability at 10 µM in assay [1] and in assay [2] were 98% and 55%, respectively. The viability at 5 µM in assay [3] is 94%.

For the compound `CC(C)(C)OC(=O)N1CCC[C@H]1C(=O)N[C@H]1CC[C@]2(C)[C@H]3C[C@@H](O)[C@@H]4[C@@H]([C@]5(C)CC[C@H](C(C)(C)O)O5)CC[C@@]4(C)[C@]3(C)CC[C@H]2C1(C)C`, the viability at 10 µM worked out at 155% in assay [1] and 32% in assay [2]. Moreover, in assay [3], the viability at 5 µM was determined as 41%.

For the compound `CC(C)(O)[C@@H]1CC[C@@](C)([C@H]2CC[C@]3(C)[C@@H]2[C@H](O)C[C@@H]2[C@@]4(C)CC[C@H](NC(=O)[C@@H](N)Cc5ccccc5)C(C)(C)[C@@H]4CC[C@]23C)O1`, the viability at 10 µM is 89% in assay [1] and 36% in assay [2]. Further, the viability at 5 µM in assay [3] worked out at 67%.

For the compound `CC(C)(O)[C@@H]1CC[C@@](C)([C@H]2CC[C@]3(C)[C@@H]2[C@H](O)C[C@@H]2[C@@]4(C)CC[C@H](NC(=O)[C@@H](N)CCCCN)C(C)(C)[C@@H]4CC[C@]23C)O1`, the viability at 10 µM in assay [1] came to 87%; in assay [2], 88%. The viability at 5 µM in assay [3] is 90%.

Turning to `CC(C)(O)[C@H]1CC[C@@](C)([C@H]2CC[C@]3(C)[C@@H]2[C@H](O)C[C@@H]2[C@@]4(C)CC[C@H](NC(=O)[C@@H](N)Cc5ccc(O)cc5)C(C)(C)[C@@H]4CC[C@]23C)O1`, the viability at 10 µM in assay [1] was found to be 93%; in assay [2], 35%. In addition, the viability at 5 µM in assay [3] was determined as 59%.

For the compound `CC(C)(C)OC(=O)N[C@@H](Cc1ccc(OC(C)(C)C)cc1)C(=O)N[C@H]1CC[C@]2(C)[C@H]3C[C@@H](O)[C@@H]4[C@@H]([C@]5(C)CC[C@H](C(C)(C)O)O5)CC[C@@]4(C)[C@]3(C)CC[C@H]2C1(C)C`, the values for the viability at 10 µM in assay [1] and in assay [2] were 125% and 38%, respectively. The viability at 5 µM in assay [3] turned out to be 42%.

As for `CC(C)(O)[C@@H]1CC[C@@](C)([C@H]2CC[C@]3(C)[C@@H]2[C@H](O)C[C@@H]2[C@@]4(C)CC[C@H](OC(=O)[C@@H]5CCCN5)C(C)(C)[C@@H]4CC[C@]23C)O1`, the results for the viability at 10 µM in assay [1] and in assay [2] were 113% and 116%, respectively. The viability at 5 µM in assay [3] was determined as 113%.

Regarding `CC(C)(O)[C@H]1CC[C@@](C)([C@H]2CC[C@]3(C)[C@@H]2[C@H](O)C[C@@H]2[C@@]4(C)CC[C@H](NC(=O)[C@@H](N)CC(=O)O)C(C)(C)[C@@H]4CC[C@]23C)O1`, the viability at 10 µM in assay [1] came to 95%; in assay [2], 100%. Further, in assay [3], the viability at 5 µM amounted to 96%.

Turning to `CC(C)(O)[C@H]1CC[C@@](C)(C2CC[C@]3(C)[C@@H]2[C@H](O)C[C@@H]2[C@@]4(C)CC[C@H](O)C(C)(C)[C@@H]4CC[C@]23C)O1` (stereo partly drawn), the viability at 10 µM in assay [1] stood at 94%; in assay [2], 64%.

Regarding `CC(C)(O)[C@@H]1CC[C@@](C)([C@H]2CC[C@]3(C)[C@@H]2[C@H](O)C[C@@H]2[C@@]4(C)CC[C@H](NC(=O)[C@@H]5CCCN5)C(C)(C)[C@@H]4CC[C@]23C)O1`, the viability at 10 µM in assay [1] is 78%; in assay [2], 58%. For the same compound, in assay [3], the viability at 5 µM came out at 83%.

With `CC(C)(C)OC(=O)C[C@H](NC(=O)OC(C)(C)C)C(=O)N[C@H]1CC[C@]2(C)[C@H]3C[C@@H](O)[C@@H]4[C@@H]([C@]5(C)CC[C@H](C(C)(C)O)O5)CC[C@@]4(C)[C@]3(C)CC[C@H]2C1(C)C`, the viability at 10 µM in assay [1] was found to be 152%; in assay [2], 28%. Further, the viability at 5 µM in assay [3] turned out to be 41%.

With `CC(C)(C)OC(=O)NCCCC[C@H](NC(=O)OC(C)(C)C)C(=O)N[C@H]1CC[C@]2(C)[C@H]3C[C@@H](O)[C@@H]4[C@@H]([C@]5(C)CC[C@@H](C(C)(C)O)O5)CC[C@@]4(C)[C@]3(C)CC[C@H]2C1(C)C`, the viability at 10 µM worked out at 99% in assay [1] and 29% in assay [2]. Besides, the viability at 5 µM in assay [3] is 36%.

As to `CC(C)(C)OC(=O)N1CCC[C@H]1C(=O)O[C@H]1CC[C@]2(C)[C@H]3C[C@@H](O)[C@@H]4[C@@H]([C@]5(C)CC[C@@H](C(C)(C)O)O5)CC[C@@]4(C)[C@]3(C)CC[C@H]2C1(C)C`, the viability at 10 µM in assay [1] was 103%; in assay [2], 35%. Further, in assay [3], the viability at 5 µM was determined as 66%.

For `CC(C)(O)[C@@H]1CC[C@@](C)([C@H]2CC[C@]3(C)[C@@H]2[C@H](O)C[C@@H]2[C@@]4(C)CC[C@H](NC(=O)[C@@H](N)CC(=O)O)C(C)(C)[C@@H]4CC[C@]23C)O1`, the viability at 10 µM in assay [1] was 90%; in assay [2] it was 88%. Besides, the viability at 5 µM in assay [3] was found to be 84%.

These data come from ChEMBL document CHEMBL5331114, “Discovery of Pyxinol Amide Derivatives Bearing Amino Acid Residues as Nonsubstrate Allosteric Inhibitors of P-Glycoprotein-Mediated Multidrug Resistance” (J Med Chem, 2023).
